Results as given in US20240246960A1 (adMare Therapeutics Society, priority 2021, published 2024).
pEC50, pIC50: −log10 of the molar value. Read-outs that look alike come from different tables or passages of the source.

Columns and labels:
[1] = Microsomal stability assay, human liver microsomes; type: in vitro ADME; conditions: for microsomal CLint at 0.1 uM: both sexes, human, liver microsomes
Description: Samples were then mixed and centrifuged. Supernatants were used for HPLC-MS/MS analysis. […] Peak areas corresponding to the test compound were recorded.

[2] = target: T1, pDNA-PK ser2056 induction in HCT116 spheroids (Homo sapiens, UniProt P78527); assay: Multicellular tumour spheroid + radiation, pDNA-PK inhibition, HCT116; type: cell-based; conditions: 20 Gy, 20% O2
T1 construct: endogenous in cells; host or cells: HCT116 multicellular tumour spheroids
How it was run: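 EC50 (μM) is concentration halving radiation-induced pDNA-PK ser2056, scored by fluorescent immunostaining of cryosections 2 h after 20 Gy. HCT116 tumour spheroids (~0.5 mm, stirred, 20% O2/5% CO2, 37 °C) exposed to serial dilutions from 10 or 5 μM to 3.5 nM starting 1 h before irradiation.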

[3] = target: T2, DNA-PK (Homo sapiens, UniProt P78527); assay: DNA-PK Assay for Biochemical Enzymatic Inhibition (ADP Glo Kinase assay)
T2 construct: purchased Invitrogen PR9107A
How it was run: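 Human DNA-PK (25 ng) preincubated 15 min with compounds (ten three-fold dilutions) in HEPES pH 7.5, MgCl2, KCl, calf thymus DNA buffer, then substrate 434.4 μM and ATP 64.4 μM (final) for 60 min at room temperature. ADP-Glo luminescence; percent inhibition fitted by four-parameter regression for IC50.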

[4] = target: T3, DNA-PK phosphorylation at Serine 2056 (Homo sapiens, UniProt P78527); assay: Cellular Assay for Inhibition of DNA-PK Phosphorylation at Serine 2056 (FaDu cells, neocarzinostatin, sandwich ELISA); type: cell-based
T3 construct: host or cells: FaDu
How it was run: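 Readout was pSer2056 and total DNA-PK, measured by sandwich ELISA on protein-normalized lysates. Prior to lysis, compound was applied to FaDu cells for 1 h (0.3% DMSO), followed by 2 h of 1 μg/mL neocarzinostatin. IC50 values were fitted from log concentration versus % inhibition normalized to DMSO and NCS controls.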

[5] = Microsomal stability assay, mouse liver microsomes; conditions: for microsomal CLint at 0.1 uM: male, CD-1, mouse, liver microsomes, pH 7.4, Microsomal Stability Mouse Clint
[6] = Hepatocyte stability assay, mouse hepatocytes; type: in vitro ADME; conditions: male, CD-1, mouse, cryopreserved hepatocytes, pH 7.3, Example 11
Description: (§1) Cryopreserved mouse hepatocytes were obtained from a pool of 10 or more male CD-1 mice. Cryopreserved human hepatocytes were obtained from a pool of 10 or more donors of mixed gender. Final hepatocyte density was 0.7 million viable cells per mL and test compound concentration was 1 uM with a maximum of 0.01% DMSO. Cryopreserved hepatocytes were thawed, washed, and resuspended in Krebs-Heinslet buffer (pH 7.3). The reaction was initiated by adding the test compound into cell suspension and incubated for 0, […], 1, 1.5, and 2 h, respectively, at 37° C./5% CO2. The reaction was stopped by adding acetonitrile into the incubation mixture. Samples were then mixed, transferred completely to another 96-well plate, and centrifuged. Supernatants were used for HPLC-MS/MS analysis. […] Peak areas corresponding to the test compound were recorded.

[7] = Hepatocyte stability assay, human hepatocytes; type: in vitro ADME; conditions: both sexes, human, cryopreserved hepatocytes, pH 7.3; Example 11
Description: as §1

[8] = pH 7.4, 0.1 mg/mL microsomes, 0.1 uM compound
[9] = Example 7, spheroid, cell line HCT115 [sic], read-out: EC50 (pDNA-PK inhibition, immunohistochemical endpoint)
[10] = Example 9 Study 2, read-out: Spheroid Cell line: HCT116 Immunohistochemical endpoint pDNA-PK inhibition EC50
[11] = 0.1 mg/mL microsomes, 0.1 uM compound

Row | SMILES | Microsomal Stability (human) % rem. 60 min [1] | microsomal CLint at 0.1 uM [1, 8] [µL/min/mg] | pEC50 [2, 9] | pEC50 [2, 10] | pIC50 ([3]; Table 1) | pIC50 ([4]; Table 1) | Microsomal Stability (mouse) % rem. 60 min [5] | microsomal CLint at 0.1 uM [5, 11] [µL/min/mg] | Microsomal Stability (human) % rem. 60 min ([1]; Example 11) | microsomal CLint at 0.1 uM ([1]; pH 7.4, Example 11) [µL/min/mg] | pIC50 ([3]; Table 2) | pIC50 ([4]; Table 2) | hepatocyte CLint at 1 uM [6] [µL/min/1e6 cells] | Microsomal Stability (mouse) % rem. 60 min ([5]; Example 11) | microsomal CLint at 0.1 uM ([5]; Example 11) [µL/min/mg] | hepatocyte CLint at 1 uM [7] [µL/min/1e6 cells]
1 | COc1ccnc(C(=O)N[C@H]2CC[C@@H](Oc3nc(N4CCOCC4)cc4ncccc34)CC2)n1 [Compound 131, 4-methoxy-N-((1s,4s)-4-((7-morpholino-1,6-naphthyridin-5-yl)oxy)cyclohexyl)pyrimidine-2-carboxamide] | E (% remaining = 0-25%) | > 116 | 5.00 to 6.00 | 5.00 to 6.00 | 9.00 to 9.30 | > 7.00 | E (% remaining = 0-25%) | > 116 | – | – | – | – | – | – | – | –
2 | O=C(N[C@H]1CC[C@@H](Oc2nc(N3CCOCC3)cc3ncccc23)CC1)c1cncs1 [Compound 137, N-((1s,4s)-4-((7-morpholino-1,6-naphthyridin-5-yl)oxy)cyclohexyl)thiazole-5-carboxamide] | F (% remaining = 25-50%) | > 116 | 6.00 to 6.30 | 6.00 to 6.30 | > 9.30 | 6.00 to 7.00 | G (% remaining = 50-75%) | < 116 | – | – | – | – | – | – | – | –
3 | CS(=O)(=O)Nc1cnc2cc(N3CCOCC3)nc(O[C@H]3CC[C@@H](NC(=O)c4ncccn4)CC3)c2c1 [Compound 177, N-((1s,4s)-4-((3-(methylsulfonamido)-7-morpholino-1,6-naphthyridin-5-yl)oxy)cyclohexyl)pyrimidine-2-carboxamide] | G (% remaining = 50-75%) | < 116 | 5.00 to 6.00 | 5.00 to 6.00 | 9.00 to 9.30 | 5.00 to 6.00 | G (% remaining = 50-75%) | < 116 | – | – | – | – | – | – | – | –

Continued, values first:

Row | Microsomal Stability (human) % rem. 60 min [1] | microsomal CLint at 0.1 uM [1, 8] [µL/min/mg] | pEC50 [2, 9] | pEC50 [2, 10] | pIC50 ([3]; Table 1) | pIC50 ([4]; Table 1) | Microsomal Stability (mouse) % rem. 60 min [5] | microsomal CLint at 0.1 uM [5, 11] [µL/min/mg] | Microsomal Stability (human) % rem. 60 min ([1]; Example 11) | microsomal CLint at 0.1 uM ([1]; pH 7.4, Example 11) [µL/min/mg] | pIC50 ([3]; Table 2) | pIC50 ([4]; Table 2) | hepatocyte CLint at 1 uM [6] [µL/min/1e6 cells] | Microsomal Stability (mouse) % rem. 60 min ([5]; Example 11) | microsomal CLint at 0.1 uM ([5]; Example 11) [µL/min/mg] | hepatocyte CLint at 1 uM [7] [µL/min/1e6 cells] | SMILES
4 | – | – | – | – | – | – | – | – | G (% remaining = 50-75%) | < 116 | > 9.30 | > 7.00 | > 8.2 | G (% remaining = 50-75%) | < 116 | – | CS(=O)(=O)Nc1cnc2cc(N3CCOCC3)nc(O[C@H]3CC[C@@H](Nc4ncccn4)CC3)c2c1 [LFA006, N-[7-Morpholino-5-[4-(pyrimidin-2-ylamino)cyclohexoxy]-1,6-naphthyridin-3-yl]methanesulfonamide]
5 | – | – | – | – | – | – | – | – | H (% remaining = 75-100%) | < 116 | 9.00 to 9.30 | > 7.00 | > 8.2 | G (% remaining = 50-75%) | < 116 | – | CS(=O)(=O)Nc1cnc2cc(N3CCOCC3)nc(O[C@H]3CC[C@@H](Nc4ncc(C(F)(F)F)cn4)CC3)c2c1 [LFA022, N-[7-Morpholino-5-[4-[[5-(trifluoromethyl)pyrimidin-2-yl]amino]cyclohexoxy]-1,6-naphthyridin-3-yl]methanesulfonamide]
6 | – | – | – | – | – | – | – | – | H (% remaining = 75-100%) | < 116 | > 9.30 | > 7.00 | > 8.2 | G (% remaining = 50-75%) | < 116 | < 8.2 | CS(=O)(=O)Nc1cnc2cc(N3CCOCC3)nc(O[C@H]3CC[C@@H](Nc4ncc(C#N)cn4)CC3)c2c1 [LFA025, N-[5-[4-[(5-Cyanopyrimidin-2-yl)amino]cyclohexoxy]-7-morpholino-1,6-naphthyridin-3-yl]methanesulfonamide]
